{
  "source": "paper PMC9081605",
  "about": "“A High-Throughput Toxicity Screen of 42 Per- and Polyfluoroalkyl Substances (PFAS) and Functional Assessment of Migration and Gene Expression in Human Placental Trophoblast Cells” (Frontiers in Toxicology, 2022)",
  "format_in_all_cases": "cell-based, human",
  "key": {"JEG-3 cells [1]": {"test_system": "JEG-3 cells", "assay": "Mitochondrial membrane potential, JC-10 assay (HTTS)", "procedure,_shortened": "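JEG-3 cells seeded at 2,500 per well were exposed to PFAS for 24 h at 37 °C, with 2.5% methanol vehicle. After a PBS wash, 20 μM JC-10 was added for 1 h at 37 °C. Membrane potential was taken as the green (490/525 nm) to red (540/590 nm) fluorescence ratio.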"}, "JEG-3 cells [2]": {"test_system": "JEG-3 cells", "assay": "CellTiter-Glo luminescent cell viability assay (HTTS)", "procedure,_shortened": "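JEG-3 cells (2,500/well) adhered overnight, then exposed 24 h to PFAS (methanol stocks; vehicle 2.5% methanol, top concentration 500 µM). Viability read by CellTiter-Glo ATP luminescence in the same wells as mitochondrial membrane potential; wells with 0 h confluence <20% or >80% excluded.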"}, "JEG-3 cells [3]": {"test_system": "JEG-3 cells", "assay": "Phase contrast live cell images, cell death (positive control)", "settings": "24 h", "procedure": "A total of 42 perfluoroalkyl substances (PFAS) were evaluated (Supplementary Table S1 contains source and purity). PFAS stock solutions were maintained in 100% methanol as previous work has shown certain PFAS degrade when stored in dimethyl sulfoxide (DMSO; [Gaballah et al., 2020]). […] The vehicle control group consisted of 97.5% media + 2.5% methanol to match the concentration of methanol in the media at the highest PFAS concentration tested (500 µM). Menadione (50–500 µM) was used as a positive control for cytotoxicity assessment. PFAS were de-identified and assigned random numbers to eliminate bias. Chemical exposure plate maps were designed so that all experimental conditions were tested in at least technical duplicates per plate. The outer edges of each plate received media alone and were excluded from all analyses to avoid edge effects. Each plate map included 14 technical replicates of the vehicle control group and 14 technical replicates of media only. Biological replicates were defined as separate 384 well plates tested on separate days using different cell passages. The experimental workflow is depicted in Supplementary Figure S1.\nJEG-3 cells were counted using a Z2 Coulter Particle Counter (Beckman Coulter, CA, United States) and seeded at a density of 2,500 cells per well in black-walled, clear bottom 384 well plates (Corning, #3764) and allowed to adhere overnight. Approximately 24 h later, 384 well plates were imaged using an IncuCyte Zoom live cell imager (Essen BioScience Inc., MI, United States) to obtain baseline cellular confluence measurements prior to chemical dosing (0 h). Media was removed from wells and replaced with fresh media containing chemical treatments (exposure media) using a Viaflo liquid handling device (Integra Biosciences, NH, United States). Within 30 min of exposure media application, plates were again imaged for cellular confluence using the IncuCyte Zoom. Plates were incubated with exposure media for 24 h and then imaged again using the IncuCyte Zoom (24 h)."}, "JEG-3 cells [4]": {"test_system": "JEG-3 cells", "assay": "Proliferation, change in confluence 0-24 h (IncuCyte Zoom, HTTS)", "procedure,_shortened": "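Confluence measured by automated image masking at 0 h and 24 h after dosing; proliferation = 24 h minus baseline confluence. JEG-3 seeded at 2,500 cells/well, ~30–50% baseline confluence, exposed 24 h to PFAS up to 500 µM in medium with 2.5% methanol vehicle; 37°C, 5% CO2.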"}, "JEG-3 cells [5]": {"test_system": "JEG-3 cells", "assay": "Scratch wound migration assay", "settings": "after 24 h of exposure, 25-200 µM", "procedure": "JEG-3 cells were cultured as described in Cell Culture section, and six PFAS were evaluated across an 8-point linear concentration curve ranging from 25 to 200 µM (25 µM steps): PFOA (335-67-1), GenX (62037-80-3), PFOS (1763-23-1), perfluorooctanesulfonamide (PFOSA, 754-91-6), perfluorooctanamide (PFOAA, 423-54-1), and perfluorononanoic acid (PFNA, 375-95-1). The vehicle control group consisted of 98% media + 2% methanol to match the concentration of methanol in the media at the highest PFAS concentration tested (200 µM). Cadmium chloride (25 µM) was used as a positive control for cytotoxicity ([Brooks and Fry, 2017]). Chemical exposure plate maps were designed so that all experimental conditions were tested in at least technical duplicates per plate. The outer edges of each plate received media alone and were excluded from all analyses to avoid edge effects. JEG-3 cells were counted and seeded at a density of 80,000 cells per well in black-walled, clear bottom 96-well plates (Corning #CLS3603, Millipore Sigma) and allowed to adhere and grow for 36 h. After approximately 36 h, 96-well plates were imaged on the IncuCyte Zoom to obtain cellular confluence measurements prior to chemical dosing (0 h). Media was then removed from wells and replaced with fresh serum-free media containing chemical treatments (serum-free exposure media) using the Viaflo liquid handling device. After 1 h of treatment with serum-free exposure media, plates were again imaged for cellular confluence using the IncuCyte Zoom. Serum-free exposure media was then removed from wells and wells were scratched by dragging a 200 µl pipette tip from top to bottom of each well, changing tips every well. Fresh media containing serum and chemical treatments (exposure media) was added to plates using a liquid handling device and allowed to grow for 72 h, with imaging via the IncuCyte Zoom every 6 h.\nPlate well bottom images were evaluated using automated cell masking as described in Proliferation section. Cell migration was calculated as the change in cellular confluence from the baseline measurement obtained immediately post-scratch to each subsequent time point (24, 48, and 72 h, post-scratch).\nRaw migration assay data exported from IncuCyte software were analyzed using GraphPad Prism 8.0 (GraphPad Software, San Diego, CA)). Prior to analysis, a minimum starting confluence value of 70% was set to ensure comparisons between samples were not skewed. Images with a starting confluence of less than 70% were excluded from analysis. Statistical analysis was performed using multiple unpaired t-tests to compare treated groups to the vehicle control followed by post hoc correction for multiple tests using the Bonferroni-Dunn method. Concentration-response analysis to determine migration assay EC50s was attempted but was not able to be modeled due to the non-linear nature of the concentration-response relationship for this endpoint."}, "[6]": {"settings": "after 24 h, in at least one concentration"}, "[7]": {"settings": "Homo sapiens, JEG-3, 24 h, read-out: Proliferation EC50 ± SD, JEG-3 cells, 24 h exposure, four-parameter fit, estimates meeting inclusion criteria"}},
  "note": "“Also recorded” adds a separate entry of the source.",
  "data": [
    {"smiles": "CC1=CC(=O)c2ccccc2C1=O", "note": "[Menadione, reference compound]", "values": [
      {"measurement": "minimal effective concentration", "setting": "JEG-3 cells [1]; Homo sapiens, JEG-3, 24 h, read-out: MMP ↓, lowest concentration at which the mean response value exceeded the mean control value ± 2*SD (rough binning)", "value": 300, "unit": "µM"},
      {"measurement": "MMP relative to vehicle control (rough binning)", "setting": "JEG-3 cells [1]; [6]", "value": "reduced MMP"},
      {"measurement": "EC50", "setting": "JEG-3 cells [2]; Homo sapiens, JEG-3, 24 h, read-out: Viability EC50 ± SD, JEG-3 cells, 24 h exposure, four-parameter fit, estimates meeting inclusion criteria", "value": "206 ± 47.1", "unit": "µM"},
      {"measurement": "cell viability relative to vehicle control (rough binning)", "setting": "JEG-3 cells [2]; [6]", "value": "reduced cell viability"},
      {"measurement": "cytotoxicity / cell death", "setting": "JEG-3 cells [3]; 100 µM", "value": "minimal cell death; also recorded: not cytotoxic"},
      {"measurement": "cell death", "setting": "JEG-3 cells [3]; 150 µM", "value": "Complete cell death"},
      {"measurement": "concentration that promoted cell death", "setting": "JEG-3 cells [3]", "value": "≥ 150", "unit": "µM"},
      {"measurement": "minimal effective concentration", "setting": "JEG-3 cells [4]; Homo sapiens, JEG-3, 24 h, read-out: Prolif ↓, lowest concentration at which the mean response value exceeded the mean control value ± 2*SD (rough binning)", "value": 150, "unit": "µM"},
      {"measurement": "EC50", "setting": "JEG-3 cells [4]; [7]", "value": "157 ± 21.4", "unit": "µM"},
      {"measurement": "cellular proliferation relative to vehicle control (rough binning)", "setting": "JEG-3 cells [4]; [6]", "value": "reduced proliferation"}
    ]},
    {"smiles": "NC(=O)C(F)(F)C(F)(F)C(F)(F)C(F)(F)C(F)(F)C(F)(F)C(F)(F)F", "note": "[Perfluorooctanamide]", "values": [
      {"measurement": "cellular migration relative to vehicle control", "setting": "JEG-3 cells [5]", "value": "significantly reduced"},
      {"measurement": "EC50", "setting": "JEG-3 cells [1]; Homo sapiens, JEG-3, 24 h, read-out: MMP EC50 ± SD, JEG-3 cells, 24 h exposure, four-parameter fit, estimates meeting inclusion criteria", "value": "295 ± 66.1", "unit": "µM"},
      {"measurement": "EC50", "setting": "JEG-3 cells [4]; [7]", "value": 114, "unit": "µM"},
      {"measurement": "EC50", "setting": "JEG-3 cells [4]; Homo sapiens, JEG-3, 24 h, read-out: proliferation EC50 ± SE, JEG-3 cells, 24 h", "value": "114 ± 35.6", "unit": "µM"},
      {"measurement": "EC50", "setting": "JEG-3 cells [4]; Homo sapiens, JEG-3, read-out: Proliferation EC50 ± SD (raw values), JEG-3 cells, raw model output including fits that did not meet inclusion criteria", "value": "114 ± 35.6", "unit": "µM"}
    ]}
  ]
}
